Drawing on ChEMBL document CHEMBL4138154, “Conformationally rigid derivatives of WAY-267,464: Synthesis and pharmacology at the human oxytocin and vasopressin-1a receptors” (Eur J Med Chem, 2018), this text covers IC50, Ki and EC50 for twelve compounds.

Molecules are shown by their SMILES.

Assay [1] addresses T1, Oxytocin receptor (Homo sapiens, UniProt P30559).
T1 sequence (P30559 whole entry): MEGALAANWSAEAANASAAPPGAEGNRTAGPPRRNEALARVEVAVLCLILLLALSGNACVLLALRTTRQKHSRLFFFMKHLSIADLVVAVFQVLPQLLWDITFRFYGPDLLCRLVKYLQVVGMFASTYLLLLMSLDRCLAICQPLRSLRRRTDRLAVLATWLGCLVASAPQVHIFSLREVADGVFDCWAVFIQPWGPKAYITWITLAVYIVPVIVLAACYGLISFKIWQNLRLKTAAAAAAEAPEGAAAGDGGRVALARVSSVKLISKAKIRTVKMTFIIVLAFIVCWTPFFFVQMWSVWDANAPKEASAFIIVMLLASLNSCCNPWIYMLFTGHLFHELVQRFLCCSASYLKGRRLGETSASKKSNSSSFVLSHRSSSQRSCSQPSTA
As to the kind of experiment: Antagonist activity at human OTR expressed in HEK293 cells assessed as inhibition of agonist-induced IP1 accumulation preincubated for 30 mins followed by agonist addition measured after 1 hr by HTRF assay. In kind it is functional, cell-based.

Assay [2] addresses T1, Oxytocin receptor. The assay is described as follows: Displacement of [3H]-oxytocin from human OTR expressed in HEK293 cell membranes after 90 mins by radioligand binding assay.
Assay [3] concerns the target T2, Vasopressin V1a receptor (Homo sapiens, UniProt P37288). As to the kind of experiment: Displacement of [3H]-vasopressin from human vasopressin V1a receptor expressed in HEK293 cell membranes after 90 mins by radioligand binding assay. (In general: In a radioligand displacement assay an active substance lowers the binding of a labelled ligand.)
Assay [4] has as its target T1, Oxytocin receptor. The assay is described as follows: Agonist activity at human OTR expressed in HEK293 cells assessed as induction of IP1 accumulation after 1 hr by HTRF assay. The class given is functional, cell-based.
Assay [5] addresses T2, Vasopressin V1a receptor. As to the kind of experiment: Agonist activity at human vasopressin V1a receptor expressed in HEK293 cells assessed as induction of IP1 accumulation after 1 hr by HTRF assay. In kind it is functional, cell-based. A general note: TR-FRET usually uses a lanthanide donor and a delayed reading to cut background.
Assay [6] has as its target T2, Vasopressin V1a receptor. As to the kind of experiment: Antagonist activity at human vasopressin V1a receptor expressed in HEK293 cells assessed as inhibition of vasopressin-induced IP1 accumulation preincubated for 30 mins followed by vasopressin addition measured after 1 hr by HTRF assay. In kind it is functional, cell-based.

T2 sequence (P37288 whole entry): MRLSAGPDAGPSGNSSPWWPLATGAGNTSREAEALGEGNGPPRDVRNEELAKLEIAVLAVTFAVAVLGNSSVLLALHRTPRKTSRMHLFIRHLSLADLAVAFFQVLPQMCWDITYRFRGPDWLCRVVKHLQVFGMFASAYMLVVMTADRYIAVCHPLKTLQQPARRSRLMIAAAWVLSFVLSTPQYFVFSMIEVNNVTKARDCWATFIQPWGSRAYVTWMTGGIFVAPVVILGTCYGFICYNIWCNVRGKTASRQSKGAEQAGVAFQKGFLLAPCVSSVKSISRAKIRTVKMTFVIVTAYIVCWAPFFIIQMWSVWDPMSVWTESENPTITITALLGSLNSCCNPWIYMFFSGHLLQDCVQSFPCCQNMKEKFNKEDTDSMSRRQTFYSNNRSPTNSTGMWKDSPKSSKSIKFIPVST

Regarding `COc1cc(CN2CCN(c3ccccc3CCC(=O)N3Cc4cnn(C)c4Nc4ccccc43)CC2)cc(OC)c1`, the IC50 in assay [1] and in assay [6] was over 10 µM each time. In addition, the Ki in assay [2] is over 10 µM; in assay [3] it was 1.06 µM. The concentration for a half-maximal effect (EC50) in assay [4] and in assay [5] was over 10 µM in each case.
As to `COc1cc(CN2CCN(c3cccc(CCC(=O)N4Cc5cnn(C)c5Nc5ccccc54)c3)CC2)cc(OC)c1`, the IC50 in assay [1] and in assay [6] was over 10 µM in each case. Also, the figures for the Ki in assay [2] and in assay [3] were over 10 µM and 3.34 µM, respectively. Moreover, the EC50 in assay [4] and in assay [5] was over 10 µM throughout.
As for `Cn1ncc2c1Nc1ccccc1N(C(=O)Cc1cccc(N3CCN(Cc4cc(O)cc(O)c4)CC3)c1)C2`, the IC50 in assay [1] and in assay [6] was over 10 µM in each case. For the same compound, the results for the Ki in assay [2] and in assay [3] were over 10 µM and 0.643 µM, respectively. In addition, the concentration giving a half-maximal response (EC50) in assay [4] and in assay [5] was over 10 µM each time.
Consider `COc1cc(CN2CCN(c3cccc(CC(=O)N4Cc5cnn(C)c5Nc5ccccc54)c3)CC2)cc(OC)c1`, for which the IC50 in assay [1] and in assay [6] was over 10 µM each time. In addition, the figures for the inhibition constant (Ki) in assay [2] and in assay [3] were over 10 µM and 2.1 µM, respectively. Moreover, the EC50 in assay [4] and in assay [5] was over 10 µM each time.
Take `Cn1ncc2c1Nc1ccccc1N(C(=O)CCc1ccccc1N1CCN(Cc3cc(O)cc(O)c3)CC1)C2`: the IC50 in assay [1] and in assay [6] was over 10 µM throughout. Moreover, the inhibition constant Ki in assay [2] is over 10 µM; in assay [3] it was 0.251 µM. Moreover, the half-maximal effective concentration (EC50) in assay [4] and in assay [5] was over 10 µM throughout.
In the case of `Cn1ncc2c1Nc1ccccc1N(C(=O)CCc1ccc(N3CCN(Cc4cc(O)cc(O)c4)CC3)cc1)C2`, the half-maximal inhibitory concentration (IC50) in assay [1] and in assay [6] was over 10 µM throughout. Also, the Ki is over 10 µM in assay [2] and 1.76 µM in assay [3]. Besides, the EC50 in assay [4] and in assay [5] was over 10 µM in each case.
Take `COc1cc(CN2CCN(c3ccc(CCC(=O)N4Cc5cnn(C)c5Nc5ccccc54)cc3)CC2)cc(OC)c1`: the IC50 in assay [1] and in assay [6] was over 10 µM throughout. For the same compound, the inhibition constant Ki in assay [2] is over 10 µM; in assay [3], 6.25 µM. In addition, the concentration giving a half-maximal response (EC50) in assay [4] and in assay [5] was over 10 µM each time.
With `Cn1ncc2c1Nc1ccccc1N(C(=O)Cc1ccccc1N1CCN(Cc3cc(O)cc(O)c3)CC1)C2`, the IC50 in assay [1] and in assay [6] was over 10 µM in each case. The values for the Ki in assay [2] and in assay [3] were over 10 µM and 1.94 µM, respectively. The concentration for a half-maximal effect (EC50) in assay [4] and in assay [5] was over 10 µM throughout.
As for `COc1cc(CN2CCN(c3ccc(CC(=O)N4Cc5cnn(C)c5Nc5ccccc54)cc3)CC2)cc(OC)c1`, the IC50 in assay [1] and in assay [6] was over 10 µM throughout. The inhibition constant (Ki) was over 10 µM in assay [2] and 1.91 µM in assay [3]. The EC50 in assay [4] and in assay [5] was over 10 µM each time.
Take `Cn1ncc2c1Nc1ccccc1N(C(=O)Cc1ccc(N3CCN(Cc4cc(O)cc(O)c4)CC3)cc1)C2`: the IC50 in assay [1] and in assay [6] was over 10 µM in each case. For the same compound, the Ki in assay [2] is over 10 µM; in assay [3] it was 0.795 µM. Moreover, the 50% effective concentration (EC50) in assay [4] and in assay [5] was over 10 µM each time.
As for `COc1cc(CN2CCN(c3ccccc3CC(=O)N3Cc4cnn(C)c4Nc4ccccc43)CC2)cc(OC)c1`, the 50% inhibitory concentration (IC50) in assay [1] and in assay [6] was over 10 µM each time. Moreover, the Ki in assay [2] was over 10 µM; in assay [3] it was 6.81 µM. In addition, the EC50 in assay [4] and in assay [5] was over 10 µM each time.
For the compound `Cn1ncc2c1Nc1ccccc1N(C(=O)CCc1cccc(N3CCN(Cc4cc(O)cc(O)c4)CC3)c1)C2`, the half-inhibitory concentration (IC50) in assay [1] and in assay [6] was over 10 µM each time. The values for the inhibition constant (Ki) in assay [2] and in assay [3] were over 10 µM and 0.874 µM, respectively. For the same compound, the EC50 in assay [4] and in assay [5] was over 10 µM throughout.

A word on the IC50: it is the concentration at which inhibition is half-maximal. The term Ki denotes the equilibrium dissociation constant of an inhibitor or competing ligand from its target. Low readings indicate a stronger hold on the target, high ones a looser hold on the target. Usually EC50 stands for the concentration needed to bring the measured effect to its halfway point.
